Test results taken from the METLIN SMRT retention time set (Domingo-Almenara et al. 2019).

Test: gradient 5% acetonitrile 3 min, to 50% in 2 min, to 85% in 15 min, held 3 min, 100 µL/min
Details: column: Zorbax Extend-C18 2.1 x 50 mm; eluents: water / acetonitrile, 0.1% formic acid
In short: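 Using water and acetonitrile that each contained 0.1% formic acid, mixtures of ~100 pure standards were separated at 100 μL/min on a Zorbax Extend-C18 column (2.1 × 50 mm, 1.8 μm). The HPLC fed a quadrupole time-of-flight mass spectrometer working in positive and negative ionization mode, with dead and dwell volumes of 40 μL and 900 μL. Data were acquired over 3 months. Retention time was read from computationally picked adduct peaks after manual inspection of each.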

Row | Structure (SMILES) | RP-LC retention time [s]
1 | CCC(C)NC(=O)c1nc(Nc2cccc(C)c2)c2ccccc2n1 (stereo not given) | 819
2 | CC(C)c1noc(-c2ccnc(-n3cnc(C(=O)N4CCCC4)c3)c2)n1 | 616
3 | COc1ccc(C2C(=O)N(C3CCC(C)CC3)CC(=O)N2Cc2ccco2)cc1OC (stereo not given) | 883
4 | O=C(CSc1nnc(-c2ccccc2F)o1)NC1CCCCC1 | 782
5 | CN(CC1COCCO1)c1ccc(C(=O)O)cc1NC(=O)c1ccc(Cl)cc1 (stereo not given) | 812
6 | CCc1noc(-c2nc(-c3ccc(F)c(F)c3)no2)n1 | 1090
7 | O=C(NCc1cccc(F)c1)N1CCC(Nc2cccnc2)C1 (stereo not given) | 606
8 | Cc1cc(C)c(C)c(S(=O)(=O)N2CCC3(CCN(c4cccnc4)C3)C2)c1C (stereo not given) | 762
9 | Cc1ccc(S(=O)(=O)c2ccc(N3CCN(c4ccccn4)CC3)nn2)cc1C | 657
10 | Nc1ncncc1-c1ccc2ccccc2c1 | 668
11 | CCn1c(CC2CCN(C(=O)Nc3ccc(C)cc3)C2)nc2cccnc21 (stereo not given) | 600
12 | CN(C)c1ccc(CNC(=O)Cc2c[nH]c3ncccc23)cc1 | 640
13 | O=C(NCCN1CCCC1)C1CCN(c2nc3cccnc3s2)CC1 | 561
14 | O=C(CCC1CCCN(S(=O)(=O)c2ccccc2)C1)N1CCN(c2ccccn2)CC1 (stereo not given) | 657
15 | O=C(Nc1ccc2c(c1)OCO2)c1cn(-c2ccc(F)cc2)nn1 | 885
16 | O=S(=O)(c1cccc(Cl)c1)N1CCN(c2cnn3c(C4CC4)nnc3c2)CC1 | 756
17 | O=C(NC1CCN(c2cc(-c3ccccc3)[nH]n2)C1)c1cccs1 (stereo not given) | 630
18 | Cc1cccc(NC(=O)CCCCC(=O)O)n1 | 528
19 | Cc1cc2nc(C(=O)Nc3cc(F)ccc3C)cc(C)n2n1 | 1050
20 | Cc1nc2c(NC(=O)c3ccccn3)cccn2n1 | 763
21 | CC(C)c1noc(-c2ccn3c(CC(=O)NC(C)c4ccc(F)cc4)nnc3c2)n1 (stereo not given) | 792
22 | Cc1cc(NC(=O)NC(=O)c2ccccc2NC(=O)CN)ccc1Oc1ncc(Br)cn1 | 653
23 | CCOC(=O)N1CCN(c2nc(-c3cccc([N+](=O)[O-])c3)cs2)CC1 | 1080

Row | Structure (SMILES) | RP-LC retention time [s]
24 | Cc1cc(C)c2c(=O)n(Cc3nc(-c4ccccc4)oc3C)c(=O)n(Cc3ccco3)c2n1 | 1380
25 | Cc1cc(C2CCCN2C(=O)Nc2ccc(C)c(F)c2)on1 (stereo not given) | 822
26 | Cc1ccc(NC(=O)CN2C(=O)CCS(=O)(=O)c3ccccc32)cc1 | 761
27 | COc1ccc(CNC(=O)N2C[C@H](c3nc(-c4ccncc4)no3)[C@@H](C)C2)cc1 | 732
28 | CCOC(=O)c1c(C)[nH]c(C(=O)N2CCC(CC(=O)NCC3CCCO3)CC2)c1C (stereo not given) | 657
29 | Cc1ccc(=O)n(-c2ccccc2)c1 | 739
30 | Cc1noc(C)c1CNC(=O)c1cc(-c2ccccc2)n[nH]1 | 706
31 | COc1ccc(CCNC(=O)N2CC(c3nc(-c4cccs4)no3)C2)cc1 | 773
32 | CCOC(=O)C1CCc2sc(NC(=O)CNC(=O)c3ccc(=O)[nH]c3)nc21 (stereo not given) | 591
33 | Cc1cccc(CNC(=O)C2CCN(S(=O)(=O)c3c(C)[nH]c(C)c3C(=O)N3CCCC3)CC2)c1 | 695
34 | CCN1C(=O)COc2ccc(-c3nc(NC(=O)C(C)(C)C)sc3C)cc21 | 643
35 | Cc1ccc(S(=O)(=O)N2CCCC2c2nc(-c3cccc(F)c3)no2)cc1Cl (stereo not given) | 1230
36 | COc1ccc2c(c1)C1(CCN(C(=O)c3ccc(C)cc3)C1)C(=O)N2C (stereo not given) | 785
37 | CC(C(=O)NCCCN1CCCCCC1)n1ccc2cc(S(=O)(=O)N3CCCCCC3)ccc21 (stereo not given) | 604
38 | O=C(NC1CCCCCC1)C1CCCN(c2ccc(=O)n(-c3cccc(Cl)c3)n2)C1 (stereo not given) | 966
39 | COc1cc(NC(=O)C2CCCN(c3cc(=O)n(C)c(=O)n3C)C2)cc(OC)c1OC (stereo not given) | 854
40 | CC(NC(=O)c1ccc2c(c1)nc1n2CCN(Cc2ccccc2)C1=O)c1ccccn1 (stereo not given) | 622
41 | Cc1ccc2c(c1)N(Cc1ccccc1C)N=C(C(=O)N1CCOCC1)S2(=O)=O | 877
42 | CSc1ccccc1C(=O)NCc1cc(-c2cccs2)on1 | 796
43 | COc1ccccc1CNC(=O)C1CCCN(c2nnc(C)c3c(C)n(-c4ccccc4)nc23)C1 (stereo not given) | 725
44 | CCN(Cc1ccc(OC)cc1)Cc1cc(=O)n2ccc(C)cc2n1 | 619
45 | Cc1cc(C(=O)NCCN2CCOCC2)nc2cc(-c3ccccn3)nn12 | 693
46 | COc1ccccc1OCC(=O)NCC1CCOCC1 | 675

Row | Structure (SMILES) | RP-LC retention time [s]
47 | O=C(C1CCN(c2cncnc2N2CCOCC2)CC1)N1CCC(Cc2ccccc2)CC1 | 700
48 | Cc1cnc(C)n1C1CCN(C(=O)c2cccn2C)C1 (stereo not given) | 580
49 | O=C(COc1cccc(Cl)c1)N1CCCN(C2CCN(CC3CC3)C2=O)CC1 (stereo not given) | 574
50 | COc1ccc(C(=O)Nc2nc(-c3ccc([N+](=O)[O-])cc3)cs2)cc1OC | 1010
51 | CN(C)c1nc2ncn3c(=O)n(CC(=O)Nc4ccc(F)c(F)c4)nc3c2s1 | 696
52 | Cc1c(Cl)cccc1N1C(=O)CN(S(C)(=O)=O)CC1(C)C(=O)NCc1ccc(F)cc1 (stereo not given) | 814
53 | Cc1ccc(C(=O)N2CCc3cc(-c4ccno4)ccc32)cc1 | 974
54 | O=C(c1ccncc1)N1CC(N(Cc2ccncc2)CC2CC2)C1 | 519
55 | COc1ccc(SCCCC(=O)Nc2cccc(C)c2C)cc1 | 906
56 | CCOC(=O)c1noc2ncnc(N3CCN(c4ccc(OC)cc4)CC3)c12 | 955
57 | CC1(C)CC(=O)c2cn(-c3ccc(F)cc3)c(=O)c(C(=O)N3CCOCC3)c2C1 | 695
58 | CCN(CC)c1ncc2c(n1)CCC(C(=O)Nc1cccc(C(=O)OC)c1)C2 (stereo not given) | 660
59 | COc1ccc(OC)c(NC(=O)c2cc3nc(-c4cccs4)cc(C(F)(F)F)n3n2)c1 | 1200
60 | COC(=O)c1cc(C)nc2c1c(=O)n(Cc1ccc(OC)cc1)c(=O)n2C | 953
61 | CC1CC(=O)N(CC(=O)Nc2ccc(Cl)cc2)c2ccccc2S1(=O)=O (stereo not given) | 843
62 | COc1ccc(NC(=O)C2CC(=O)N(CCc3c[nH]c4ccc(F)cc34)C2)c(OC)c1 (stereo not given) | 793
63 | CCN(CC)S(=O)(=O)c1ccc2c(c1)N(CC(=O)NCCc1cnc[nH]1)C(=O)C1CCCCN21 (stereo not given) | 655
64 | CCOC(=O)c1c(-c2ccccc2)csc1NC(=O)c1ccccc1C(=O)O | 963
65 | Cc1nnc(NC(=O)C2CCN(C(=O)c3cccc(F)c3)CC2)s1 | 661
66 | COc1ccc(NC(=O)c2[nH]c3cc(C)sc3c2CN2CCOCC2)cc1 | 655
67 | C[C@H](C(=O)O)c1cccc(C(=O)c2ccccc2)c1 | 866
68 | CCOC(=O)c1ccc(NC(=O)COc2cc(C)nc(N3CCN(c4ccccc4)CC3)n2)cc1 | 864
69 | CC1CCCN(CCCNC(=O)C2CCCN(c3ncnc4c3nc3n4CCCCC3)C2)C1 (stereo not given) | 585

Row | Structure (SMILES) | RP-LC retention time [s]
70 | O=C(c1cccs1)N1CCCC(c2nncn2-c2ccccc2)C1 (stereo not given) | 688
71 | CCCNc1cc(-n2nc(C)cc2C)ncn1 | 771
72 | Nc1ccc(S(=O)(=O)N2CCCCC2c2cccnc2)cc1 (stereo not given) | 555
73 | COC(=O)c1c(-c2ccccc2)csc1NC(=O)c1ccnn1C | 1110
74 | COc1ccc2c(c1)C1(CCN(S(=O)(=O)c3ccc(C#N)cc3)C1)C(=O)N2C (stereo not given) | 880
75 | COc1ccc(Cl)cc1NC(=O)c1cn2c(n1)CCCC2 | 726
76 | O=C(NC1CCN(c2cc(-c3ccccc3)[nH]n2)CC1)c1ccoc1 | 676
77 | CCc1cc(=O)n(CC(=O)Nc2ccc(N(C)C)cc2)c(N2CCOCC2)n1 | 587
78 | Cn1nc(-c2nc(-c3ccc(F)cc3)no2)c2c1CCN(C(=O)NC1CCCC1)C2 | 771
79 | CCc1ccc(CNC(=O)c2c(O)c3cccnc3[nH]c2=O)cc1 | 1040
80 | COC(=O)c1ccc2c(=O)n(-c3ccc4c(c3)OCO4)c(N3CCCCC3)nc2c1 | 1080
81 | COC(=O)c1cc(C)nc2c1c(=O)n(Cc1ccc(C)cc1)c(=O)n2Cc1ccco1 | 1160
82 | COCCNc1c(-c2ccccc2)nc2sc(C(=O)NC(C)C)c(C)n12 | 749
83 | Cc1cc(Nc2nc(C(=O)NCCN3CCOCC3)cc3occc23)ccc1Br | 621
84 | O=C(Cc1c[nH]c2ccccc12)NC1(c2nc(-c3ccncc3)no2)CCCCC1 | 807
85 | COc1ccc(OC)c(C2CN(C(=O)c3ccc4c(c3)OCO4)CC2C(=O)N2CCCC2)c1 (stereo not given) | 723
86 | Cc1cc(C)cc(NC(=O)Nc2ccc3nncn3c2)c1 | 738
87 | CC(C)c1ccc(CNC(=O)C2CCN(C(=O)c3ncn4c3COC(c3ccccc3)C4)CC2)cc1 (stereo not given) | 892
88 | Cc1ccc(CN2CCN(C(=O)C3CCc4nc(N5CCOCC5)ncc4C3)CC2)cc1C (stereo not given) | 623
89 | CCOc1ccc(-c2noc(Cn3ncn4nc(-c5ccc(OC)cc5)cc4c3=O)n2)cc1OC | 1040
90 | Cc1ccc(Nc2c(-c3cccc(Br)c3)nc3ccccn23)cc1 | 778
